The source of these data is patent publication US20210253598A1, “ARYL ANNULATED MACROCYCLIC INDOLE DERIVATIVES” (priority 2017, published 2021).

Values joined by “and” are separate entries in the source; they are usually repeats but may differ in a detail not shown here. Equal entries are not always repeated. Where two headings read alike, the source gives them in different places.

For data set [1] the following is noted: 11-membered ring.
Data set [2] relates to SUDHL5. In words: Induction of caspase-3/7 activity in SUDHL5 cells (Assay 4). In kind it is cell-based. Conditions: SUDHL5, 3 hours treatment, Caspase-Glo 3/7, median, read-out: Caspase SUDHL5 [M] (median). The essentials: (§1)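 Luminescent Caspase-Glo 3/7 read-out in SUDHL5 and SUDHL10 cells after 3 h compound exposure at 37 °C, followed by 1 h reagent incubation.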
Data set [3] has as its system SUDHL10. Put plainly: Induction of caspase-3/7 activity in SUDHL10 cells (Assay 4). Format: cell-based. Conditions: SUDHL10, 3 hours treatment, Caspase-Glo 3/7, median, read-out: Caspase SUDHL10 [M] (median). The essentials:
as §1

Data set [4] concerns SUDHL5. Put plainly: Induction of cytotoxicity in SUDHL5 cells, CellTiter-Glo (Assay 6). Format: cell-based. Conditions: SUDHL5, 5 hours incubation, median, read-out: Cytotox SUDHL5 [M] (median). Put shortly: (§2)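 Run alongside apoptosis assays, this cytotoxicity measure used a 5-hour compound incubation at 37° C in humidified conditions, following overnight attachment. Cell viability was quantified by CellTiter-Glo luminescence.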

In data set [5] the test system is SUDHL10. Put plainly: Induction of cytotoxicity in SUDHL10 cells, CellTiter-Glo (Assay 6). Conditions: SUDHL10, 5 hours incubation, median, read-out: Cytotox SUDHL10 [M] (median). In kind it is cell-based. The essentials:
as §2
Background: Cellular ATP, detected with luciferase, serves as a proxy for viable cell number.

For data set [6], the system named is SUDHL5. Put plainly: Anti-proliferative effect in SUDHL5 cells, CellTiter-Glo (Assay 7). In kind it is cell-based. As to conditions: SUDHL5, 72 hours incubation, CellTiter-Glo, median, read-out: Antiproli SUDHL5 [M] (median). The essentials:
(§3)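 Cells were plated and incubated overnight at 37 °C alongside a day 0 reference plate, then exposed to compound for 72 h. Viability was read by CellTiter-Glo luminescence, and IC50s were calculated using day 0 values and DMSO controls as references.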

A further data set concerns MV-4-11. Put plainly: Anti-proliferative effect in MV-4-11 cells, CellTiter-Glo (Assay 7). Conditions: MV-4-11, 72 hours incubation, CellTiter-Glo, several values per example, read-out: Antiproli MV-4-11. Format: cell-based. The essentials: as §3
A further data set concerns AMO-1. Put plainly: Anti-proliferative effect in AMO-1 cells, CellTiter-Glo (Assay 7). Format: cell-based. As to conditions: AMO-1, 72 hours incubation, CellTiter-Glo, several values per example, read-out: Antiproli AMO-1. The essentials: as §3
The subject of the next data set is HMC-1-8. Put plainly: Anti-proliferative effect in HMC-1-8 cells, CellTiter-Glo (Assay 7). Format: cell-based. As to conditions: HMC-1-8, 72 hours incubation, read-out: Antiproli HMC-1-8. The method, then: (§4) Assessment of the Anti-Proliferative Effect of Compounds in Different Cell Lines
(§5) The impact of compounds on the proliferation of different cell lines was assessed using the CellTiter-Glo® Luminescent Cell Viability reagent from Promega (G7573).
(§6) In parallel, cells were plated in a reference (day 0) plate for time zero determination. Cells were incubated in a humidified incubator at 37° C. overnight.
(§7) Rim wells were excluded. The cells were incubated for 72 hours in a humidified incubator at 37° C. The day 0 plate was measured by adding 30 μL/well of CTG solution (CellTiter-Glo® Luminescent Cell Viability reagent, Promega G7573) to time zero wells in the reference plate followed by a 10 minutes incubation and luminescence reading at 0.1 ms. using the PHERAstar FS microplate reader (BMG Labtech).
(§8) After 72 hours incubation, the treated plates were measured in the same way as the day 0 plate mentioned above. The Bella DRC Master Sheet was used to calculate IC50s, with CI=day 0 values and C0=DMSO control values.

The conditions of data set [7]: the molecule shown is the open-chain precursor; crosslinker bond; 11-membered ring; 2,3-bis(chloromethyl)pyridine HCl/Cs2CO3/NaI; MeCN; 73.1 mM; 75.0 °C.
For data set [8] the following is noted: the molecule shown is the open-chain precursor; crosslinker bond; 11-membered ring; 2,3-bis(chloromethyl)pyrazine/Cs2CO3/NaI; MeCN; 9.09 mM; 70.0 °C.
Another data set concerns the target BCL-XL (Homo sapiens, UniProt Q07817). In words: Protein-protein interaction assay BCL-XL/Bad BH3 peptide, TR-FRET (BCL-XL assay, Assay 2). Format: binding. Conditions: His-BCL-XL / Bad BH3 peptide, median. (In general: Time-resolved FRET reads energy transfer from a long-lived donor to a nearby acceptor.)
In a further data set the target is BCL-2 (Homo sapiens, UniProt P10415). In words: Protein-protein interaction assay BCL-2/Bad BH3 peptide, TR-FRET (BCL-2 assay, Assay 3). Conditions: His-BCL-2 / Bad BH3 peptide, median. Format: binding.
Sequence of BCL-2 (P10415 1-211): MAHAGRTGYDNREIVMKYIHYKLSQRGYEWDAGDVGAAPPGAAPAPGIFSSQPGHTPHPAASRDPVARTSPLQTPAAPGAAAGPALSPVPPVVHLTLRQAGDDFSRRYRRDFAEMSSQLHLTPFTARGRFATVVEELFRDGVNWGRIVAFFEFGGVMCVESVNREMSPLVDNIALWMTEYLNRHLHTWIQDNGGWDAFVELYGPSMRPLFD
Another data set concerns the target MCL-1 (Homo sapiens, UniProt Q07820, K194A/K197A/R201A). Put plainly: Protein-protein interaction assay MCL-1/Noxa BH3 peptide, TR-FRET (MCL-1 assay, Assay 1). In kind it is binding. Conditions: MCL-1 Assay [M] (median), MBP-MCL-1 / Noxa BH3 peptide. The essentials:
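TR-FRET competition between compounds and a biotin-PEG Noxa BH3 tracer for 1 nM MBP-MCL-1 (residues 173-321). Incubation was 1 h at 22 °C in the dark, then overnight at 4 °C, in 50 mM Tris pH 7 buffer with KF and DTT, after a 10-min compound pre-equilibration. Normalized ratios were fitted with a 4-parameter Hill equation to give IC50.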

The test system of the next data set is A2780. Put plainly: Anti-proliferative effect in A2780 cells, CellTiter-Glo (Assay 7). In kind it is cell-based. Conditions: Homo sapiens, A2780, 72 h, A2780, 72 hours incubation, CellTiter-Glo; several values per example; read-out: Antiproli A2780. The essentials: as §3
For data set [9], the system named is SUDHL10. Put plainly: Anti-proliferative effect in SUDHL10 cells, CellTiter-Glo (Assay 7). In kind it is cell-based. Conditions: Homo sapiens, SU-DHL10, SUDHL10, 72 hours incubation, median, read-out: Antiproli SUDHL10 [M] (median). The method, then:
as §4, §5, §6, §7, §8

Sequence of BCL-XL (Q07817 1-212): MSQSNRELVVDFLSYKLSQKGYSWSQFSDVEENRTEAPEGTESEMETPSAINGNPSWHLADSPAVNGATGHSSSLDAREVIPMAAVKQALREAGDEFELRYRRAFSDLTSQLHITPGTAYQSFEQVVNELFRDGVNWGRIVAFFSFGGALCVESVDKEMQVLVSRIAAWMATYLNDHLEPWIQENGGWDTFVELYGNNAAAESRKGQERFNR
Sequence of MCL-1 (Q07820 173-321 K194A/K197A/R201A, looked up): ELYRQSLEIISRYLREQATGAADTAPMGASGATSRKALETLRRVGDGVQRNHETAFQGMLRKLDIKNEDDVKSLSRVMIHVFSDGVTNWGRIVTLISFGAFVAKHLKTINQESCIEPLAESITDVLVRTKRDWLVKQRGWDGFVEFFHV
Procedure for BCL-XL: Protein-Protein Interaction Assay: BCL-XL/Bad BH3 Peptide (BCL-XL Assay)
The dose-dependent inhibition by the compounds described in this invention of the interaction between BCL-XL and the BH3 domain of Bad (both human) was determined using a steady state binding competition assay with time-resolved fluorescence energy transfer (TR-FRET) readout. For that purpose BCL-XL (amino acids 1-212, C-terminal fused to a hexahistidine (6×His) tag (SEQ ID 3) and a synthetic Bad BH3-derived peptide of sequence Biotin-PEG2-PEG2-[sequence]-Nle-[sequence]-amide (SEQ ID 4) served as protein receptor and tracer ligand respectively. The recombinant BCL-XL protein (expressed in E. coli) was purchased from BPS Bioscience (San Diego, Calif., USA). The Bad BH3-derived peptide can be obtained from e.g. Biosyntan (Berlin, Germany).
For that, 100-fold concentrated DMSO solutions were prepared by serial dilutions (1:3.4) of a 2 mM stock solution in a clear, 384-well microtiter plate (Greiner Bio-One, Frickenhausen, Germany). From there, 50 nl were transferred in a dark test plate (Greiner Bio-One, Frickenhausen, Germany). The assay was initiated by addition of 2 μl of a 2,5-fold concentrated His-BCL-XL solution (usually for a 1 nM end concentration in 5 μl reaction volume) in aqueous assay buffer [50 mM Tris/HCl pH 7, 100 mM sodium chloride (NaCl), 50 mM potassium fluoride (KF), 0.005% Tween-20, 2 mM DTT, 0.1% bovine gamma globulin (BGG)] to the compounds in the assay plate. This was followed by a 10-minute incubation step at 22° C. for pre-equilibration of the putative complex between His-BCL-XL and the compounds.
The mixture was incubated in the dark for one hour at 22° C. and then overnight at 4° C. The formation of BCL-XL/Bad complexes was determined by measuring the resonance energy transfer of the anti-His- Eu-cryptate antibody to the streptavidin-XL665 present in the reaction. For that purpose, the fluorescence emission at 620 nm and 665 nm after excitation at 330-350 nm was measured in a TR-FRET measuring instrument, for instance a Rubystar or a Pherastar (both from BMG Lab Technologies, Offenburg, Germany) or a Viewlux (Perkin-Elmer). The ratio of the emission at 665 nm and at 622 nm was used as indicator of the amount of BCL-XL/Bad complexes present.
The resulting data (ratio) were normalized, taking 0% inhibition as the mean value of control measurements (usually 32 data points) where all reagents were included. In this case 50 nl DMSO were used instead of compounds. […] IC50 values were determined by regression analysis based on a 4 parameter equation (minimum, maximum, IC50, Hill; Y=Max+(Min−Max)/(1+(X/IC50)^Hill) using the Screener Software (Genedata).

On to `CCOC(=O)c1c(CCCOc2cccc3cc(F)ccc23)c2ccc(Cl)c3c2n1Cc1ccccc1COCc1c-3c(CC)nn1CCN1CCOCC1`, for which the ring closure, isolated yield in data set [1] (from CCOC(=O)c1c(CCCOc2cccc3cc(F)ccc23)c2ccc(Cl)c(-c3c(CC)nn(CCN4CCOCC4)c3CO)c2n1Cc1ccccc1CBr, ether bond, NaH/di-tert-butyl imidodicarbonate, DMF, 56.1 mM, […]) is 10%. Further, where the note is “from CCOC(=O)c1c(CCCOc2cccc3cc(F)ccc23)c2ccc(Cl)c(-c3c(CC)nn(CCN4CCOCC4)c3CO)c2n1Cc1ccccc1CBr, ether bond, NaH / di-tert-butyl imidodicarbonate, DMF, 56.1 mM, 50.0 °C, […]”, the ring closure, yield of all isomers was 10%.
On to `Cc1c2c(nn1C)COCc1nccnc1Cn1c(C(=O)O)c(CCCOc3cccc4ccccc34)c3ccc(Cl)c-2c31` (single isomer, unassigned; enantiomer 2) [Example 47, 3-Chloro-4,5-dimethyl-17-{3-[(naphthalen-1-yl)oxy]propyl}-5,7,9,14-tetrahydropyrazino-[2′,3′:3,4]pyrazolo[4′,3′:9,10][1,6]oxazacycloundecino[8,7,6-hi]indole-16-carboxylic Acid (Enantiomer 2)], for which the EC50 in the data set on SUDHL5 [2] is 4.7e-06 M; with SUDHL10 [3], 1.6e-05 M. Moreover, the IC50 in the data set with SUDHL5 [4] turned out to be 4.8e-06 M; in the data set with SUDHL10 [5], 1.9e-05 M; in the data set on SUDHL5 [6], 4.6e-06 M; in the data set on MV-4-11, 11.7 µM; in the data set on AMO-1 it was 11.5 µM; in the data set on HMC-1-8, 16.1 µM.
As for `CCOC(=O)c1[nH]c2c(-c3c(CO)nn(C)c3C)cccc2c1CCCOc1cccc2ccccc12`, in data set [7], the ring closure, yield after HPLC is 20% and 30%.
`CCOC(=O)c1c(CCCOc2cccc3ccccc23)c2ccc(Cl)c3c2n1Cc1ccccc1COCc1nn(C)c(C)c1-3`: the ring closure, isolated yield in [1] (from CCOC(=O)c1c(CCCOc2cccc3ccccc23)c2ccc(Cl)c(-c3c(CO)nn(C)c3C)c2n1Cc1ccccc1CBr, ether bond, NaH/di-tert-butyl imidodicarbonate, THF, 29.9 mM, […]) turned out to be 76%. Also, under “from CCOC(=O)c1c(CCCOc2cccc3ccccc23)c2ccc(Cl)c(-c3c(CO)nn(C)c3C)c2n1Cc1ccccc1CBr, ether bond, sodium hydride / di-tert-butyl imidodicarbonate, THF, 29.9 mM, […], 72.0 h”, the ring closure, yield of all isomers is 76%.
The compound `CCOC(=O)c1[nH]c2c(-c3c(CO)nn(C)c3C)c(Cl)ccc2c1CCCOc1cccc2cc(F)ccc12` returned a ring closure, isolated yield in [1] (the molecule shown is the open-chain precursor, crosslinker bond, 1,2-bis(bromomethyl)benzene/Cs2CO3, MeCN/THF 2:1, 24.3 mM, 80.0 °C) of 74%. The compound also registered a ring closure, crude yield in data set [8] of 90%.
On to `Cc1c2c(nn1C)COCc1nccnc1Cn1c(C(=O)O)c(CCCOc3cccc4ccccc34)c3ccc(Cl)c-2c31` (single isomer, unassigned; enantiomer 1) [Example 46, 3-Chloro-4,5-dimethyl-17-{3-[(naphthalen-1-yl)oxy]propyl}-5,7,9,14-tetrahydropyrazino-[2′,3′:3,4]pyrazolo[4′,3′:9,10][1,6]oxazacycloundecino[8,7,6-hi]indole-16-carboxylic Acid (Enantiomer 1)], for which the IC50 against BCL-XL is over 20 µM; against BCL-2, over 20 µM; in the data set on SUDHL10 [5], 7e-06 M; with MV-4-11, 5.27 µM; in the data set on AMO-1 (Homo sapiens, AMO1, 72 h), 6.15 µM; in the data set on HMC-1-8 (72 h), 11.9 µM. Further, the EC50 in the data set on SUDHL5 [2] was determined as 1.8e-06 M; in the data set with SUDHL10 [3] it was 7.3e-06 M.
`CCOC(=O)c1c(CCCOc2cccc3ccccc23)c2cccc3c2n1Cc1ccccc1CNCc1nn(C)c(C)c1-3` yielded a ring closure, yield of all isomers (from CCOC(=O)c1c(CCCOc2cccc3ccccc23)c2cccc(-c3c(CBr)nn(C)c3C)c2n1Cc1ccccc1CN, amine bond, cesium carbonate, acetonitrile, 30.6 mM, 50.0 °C, 15.0 h) of 47.3%.
With `Cc1c2c(nn1C)COCc1nccnc1Cn1c(C(=O)O)c(CCCOc3cccc4cc(F)ccc34)c3ccc(Cl)c-2c31` (racemic) [Example 93, (rac)-3-Chloro-17-{3-[(6-fluoronaphthalen-1-yl)oxy]propyl}-4,5-dimethyl-5,7,9,14-tetrahydropyrazino[2′,3′:3,4]pyrazolo[4′,3′:9,10][1,6]oxazacycloundecino[8,7,6-hi]indole-16-carboxylic Acid], the IC50 against MCL-1 is 1.5e-09 M; against BCL-XL, over 20 µM; on BCL-2, over 20 µM; with SUDHL5 [4] (Homo sapiens, SU-DHL-5, 5 h), 2.8e-06 M; in the data set on SUDHL10 [5] (Homo sapiens, SU-DHL10, 5 h), 6.7e-06 M; with SUDHL5 [6] (Homo sapiens, SU-DHL-5, 72 h), 2.5e-06 M. The IC50 with MV-4-11 (Homo sapiens, MV4-11, 72 h) was 15.1 µM; in the data set on AMO-1 (Homo sapiens, AMO1, 72 h), 7.19 µM; in the data set on HMC-1-8 (72 h) it was 32 µM; in the data set on A2780, over 33 µM. Also, the EC50 with SUDHL5 [2] (Homo sapiens, SU-DHL-5, 3 h) was 2.5e-06 M; in the data set on SUDHL10 [3] (Homo sapiens, SU-DHL10, 3 h) it was 1e-05 M.
For the compound `CCc1c2c(nn1C)COCc1ccccc1Cn1c(C(=O)O)c(CCCOc3cccc4c3CCC4)c3ccc(F)c-2c31` (racemic) [Example 78, (rac)-1-(3-((2,3-Dihydro-1H-inden-4-yl)oxy)propyl)-14-ethyl-15-fluoro-13-methyl-4,9,11,13-tetrahydrobenzo[3,4]pyrazolo[4′,3′:9,10][1]oxa[6]azacycloundecino[8,7,6-hi]indole-2-carboxylic], the IC50 is 1.9e-09 M at MCL-1; over 20 µM against BCL-XL; over 20 µM against BCL-2; 2.1e-06 M with SUDHL5 [4] (Homo sapiens, SU-DHL-5, 5 h); 3.7e-06 M with SUDHL10 [5] (Homo sapiens, SU-DHL10, 5 h); 3.3e-06 M with SUDHL5 [6] (Homo sapiens, SU-DHL-5, 72 h). The IC50 with SUDHL10 [9] worked out at 1.9e-06 M; with AMO-1 it was 6.82 µM; in the data set with AMO-1 (Homo sapiens, AMO1, 72 h), 6.61 µM; in the data set on A2780, 5.04 µM. In addition, the EC50 in the data set with SUDHL5 [2] (Homo sapiens, SU-DHL-5, 3 h) is 2.1e-06 M; in the data set on SUDHL10 [3] (Homo sapiens, SU-DHL10, 3 h), 5.2e-06 M.
